Literature values in patent publication US20210137911A1, “NOVEL CHRONOTHERAPY BASED ON CIRCADIAN RHYTHMS” (THE TRUSTEES OF THE UNIVERSITY OF PENNSYLVANIA, priority 2014, published 2021).
Where two headings read alike, the source gives them in different places.

Conditions: cited from earlier work
[1] = half-life of therapeutic compound as listed in Table 1
[2] = half-life of top selling therapeutic compounds (Table 1)

In the case of `Cc1ccc(=O)n(-c2ccccc2)c1` [Pirfenidone], the “½ Life” value [1] is given as 2 h.
For `Oc1ccc(CCCCNC[C@H](O)c2ccc(O)c(O)c2)cc1` [Arbutamine], the “½ Life” value (in vivo) is given as 0.133 h.
In the case of `CN1C(=O)CC(C)(c2ccccc2)C1=O` (stereo not shown) [Methsuximide], the “½ Life” value [1] is listed as 1.4 h.
In the case of `O=C(O)CCCO` [Gamma Hydroxybutyric Acid], the “½ Life” value [1] is given as 0.5 h.
For `O=[N+]([O-])O[C@@H]1CO[C@H]2[C@@H]1OC[C@@H]2O` [Isosorbide Mononitrate], the “½ Life” value [1] is given as 5 h.
For `CC(C)C[C@H](NC(=O)[C@@H](Cc1ccc2ccccc2c1)NC(=O)[C@H](Cc1ccc(O)cc1)NC(=O)[C@H](CO)NC(=O)[C@H](Cc1c[nH]c2ccccc12)NC(=O)[C@H](Cc1c[nH]cn1)NC(=O)[C@@H]1CCC(=O)N1)C(=O)N[C@@H](CCCNC(=N)N)C(=O)N1CCC[C@H]1C(=O)NCC(N)=O` [Nafarelin], the “½ Life” value (in vivo) is given as 3 h.
For `CC(=O)N[C@H]1[C@H]([C@H](O)[C@H](O)CO)OC(C(=O)O)=C[C@@H]1N=C(N)N` [Zanamivir], the “½ Life” value (in vivo) is given as 2.5 h.
In the case of `CC(C)C[C@H]1C(=O)N2CCC[C@H]2[C@]2(O)O[C@](NC(=O)[C@@H]3C=C4c5cccc6[nH]c(Br)c(c56)C[C@H]4N(C)C3)(C(C)C)C(=O)N12` [Bromocriptine], the “½ Life” value [2] is given as 2 h.
In the case of `O=C1C(CC[S+]([O-])c2ccccc2)C(=O)N(c2ccccc2)N1c1ccccc1` (stereo not shown) [Sulfinpyrazone], the “½ Life” value (in vivo) is given as 4 h.
In the case of `Nc1nc(Cl)nc2c1ncn2[C@@H]1O[C@H](CO)[C@@H](O)[C@@H]1F` [Clofarabine], the “½ Life” value [2] is listed as 5.2 h.
For `C[C@]12C=CC(=O)C=C1CC[C@H]1[C@@H]3C[C@@H](O)[C@](O)(C(=O)CO)[C@@]3(C)C[C@H](O)[C@@]12F` [Triamcinolone], the “½ Life” value (in vivo) is given as 1.466 h.
For `Cc1cc(C2CCCCC2)n(O)c(=O)c1` [Ciclopirox], the “½ Life” value [2] is listed as 1.7 h.
In the case of `CC1=C(/C=C/C(C)=C/C=C/C(C)=C/C(=O)O)C(C)(C)CCC1` [Tretinoin], the “½ Life” value (in vivo) is listed as 0.5 h.
For `CN(N=O)C(=O)N[C@@H](C=O)[C@@H](O)[C@H](O)[C@H](O)CO` [Streptozocin], the “½ Life” value (in vivo) is listed as 0.0833 h.
For `Cc1ccc(C)c(OCCCC(C)(C)C(=O)O)c1` [Gemfibrozil, reference compound], the “½ Life” value [1] is given as 1.5 h, the half-life (see Table 1) is given as “one and a half” and the minimum reported half-life (see Table 1) is given as “one and a half”.
In the case of `CN(CC(=O)O)C(=N)N` [Creatine], the “½ Life” value [2] is listed as 3 h.
In the case of `CCC(=O)C1(c2cccc(O)c2)CCN(C)CC1` [Ketobemidone], the “½ Life” value (in vivo) is listed as 2.42 h.
For Interferon alfacon-1, the “½ Life” value (in vivo) is listed as 1.3 h.
For `C[C@@H]1C[C@H]2[C@@H]3CCC4=CC(=O)C=C[C@]4(C)[C@@]3(Cl)[C@@H](O)C[C@]2(C)[C@@]1(O)C(=O)CCl` [Mometasone], the “½ Life” value [1] is given as 5.8 h.
In the case of `CO[C@H]1C(=O)[C@]2(C)[C@@H](OC)C[C@H]3OC[C@@]3(OC(C)=O)[C@H]2[C@H](OC(=O)c2ccccc2)[C@]2(O)C[C@H](OC(=O)[C@H](O)[C@@H](NC(=O)OC(C)(C)C)c3ccccc3)C(C)=C1C2(C)C` [Cabazitaxel], the “½ Life” value [2] is given as 4 h.
In the case of `CCC1=C(C)c2cc3[n-]c(cc4[n-]c(cc5nc(cc1n2)C(C)=C5CC)c(C)c4CCC(=O)O)c(CCC(=O)O)c3C.[Cl-].[Cl-].[Sn+4]` [Stannsoporfin], the “½ Life” value (in vivo) is given as 3.8 h.
For `Clc1ccc2nsnc2c1NC1=NCCN1` [Tizanidine], the “½ Life” value (in vivo) is listed as 2.5 h.
For `Nc1nc2[nH]cc(CCc3ccc(C(=O)N[C@@H](CCC(=O)O)C(=O)O)cc3)c2c(=O)[nH]1` [Pemetrexed], the “½ Life” value [1] is listed as 3.5 h.
For `CC(=O)N1N=C(c2ccc(N)cc2)c2cc3c(cc2C[C@H]1C)OCO3` [Talampanel], the “½ Life” value (in vivo) is listed as 3 h.
In the case of `NC(N)=NCCC[C@@H](N)C(=O)N[C@@H](CCCN=C(N)N)C(=O)N1CCC[C@H]1C(=O)N1C[C@H](O)C[C@H]1C(=O)NCC(=O)N[C@@H](Cc1cccs1)C(=O)N[C@@H](CO)C(=O)N1Cc2ccccc2C[C@@H]1C(=O)N1[C@H](C(=O)N[C@@H](CCCN=C(N)N)C(=O)O)C[C@@H]2CCCC[C@@H]21` [Icatibant], the “½ Life” value (in vivo) is given as 1.4 h.
For `CC(=O)Oc1ccc2c3c1O[C@H]1[C@@H](OC(C)=O)C=C[C@H]4[C@@H](C2)N(C)CC[C@@]341` [Heroin], the “½ Life” value [1] is listed as 0.166 h.
For `CCCCC[C@H](O)/C=C/[C@H]1[C@H](O)CC(=O)[C@@H]1C/C=C\CCCC(=O)O` [Dinoprostone], the “½ Life” value [2] is listed as 0.0833 h.
For `CN(C)C(=O)Oc1ccc[n+](C)c1` [Pyridostigmine], the “½ Life” value (in vivo) is listed as 3 h.
For `CC[C@]1(O)C[C@H]2CN(CCc3c([nH]c4ccccc34)[C@@](C(=O)OC)(c3cc4c(cc3OC)N(C=O)[C@H]3[C@@](O)(C(=O)OC)[C@H](OC(C)=O)[C@]5(CC)C=CCN6CC[C@]43[C@@H]65)C2)C1` [Vincristine], the “½ Life” value (in vivo) is given as 5 h.
For `COc1cc([C@@H]2c3cc4c(cc3[C@H](O)[C@H]3COC(=O)[C@H]23)OCO4)cc(OC)c1OC` [Podofilox], the “½ Life” value [1] is listed as 1 h.
In the case of Enoxaparin, the “½ Life” value (in vivo) is listed as 4.5 h.
In the case of `CCCCNc1cc(C(=O)O)cc(S(N)(=O)=O)c1Oc1ccccc1` [Bumetanide], the “½ Life” value [2] is given as 1 h.
For `C1CCC(C(CC2CCCCN2)C2CCCCC2)CC1` (stereo not shown) [Perhexiline], the “½ Life” value [1] is listed as 2 h.
For `O=c1n(CCCN2CCN(c3cccc(Cl)c3)CC2)nc2ccccn12` [Trazodone], the “½ Life” value (in vivo) is listed as 1 h.
For `CC[C@@H]1C(=O)OC[C@@H]1Cc1cncn1C` [Pilocarpine], the “½ Life” value [1] is given as 0.76 h.
For `Cc1nccn1CC1CCc2c(c3ccccc3n2C)C1=O` (stereo not shown) [Ondansetron], the “½ Life” value [1] is listed as 5.7 h.
In the case of `C=CCOc1ccccc1OCC(O)CNC(C)C` (stereo not shown) [Oxprenolol], the “½ Life” value [1] is given as 1 h.
In the case of Mecasermin, the “½ Life” value (in vivo) is listed as 2 h.
For `N#C[C@@H]1CCCN1C(=O)CNC12CC3CC(CC(O)(C3)C1)C2` [Vildagliptin], the “½ Life” value (in vivo) is given as 1.5 h.
In the case of `COc1ccc(Cc2nccc3cc(OC)c(OC)cc23)cc1OC` [Papaverine], the “½ Life” value (in vivo) is given as 0.5 h.
For `CC(=O)[C@H]1CC[C@H]2[C@@H]3C=CC4=CC(=O)CC[C@@]4(C)[C@@H]3CC[C@]12C` [Dydrogesterone], the “½ Life” value [2] is listed as 5 h.
In the case of Insulin Glulisine, the “½ Life” value (in vivo) is listed as 0.7 h.
For `Nc1nc(N)c2nc(-c3ccccc3)c(N)nc2n1` [Triamterene], the “½ Life” value (in vivo) is given as 4.25 h.
In the case of `Cc1[nH]c(=O)c(C#N)cc1-c1ccncc1` [Milrinone], the “½ Life” value [1] is listed as 2.3 h.
In the case of `CCCCNc1ccc(C(=O)OCCOCCOCCOCCOCCOCCOCCOCCOCCOC)cc1` [Benzonatate], the “½ Life” value [2] is listed as 3 h.
In the case of `CCCC(C)C1(CC)C(=O)NC(=O)NC1=O` (stereo not shown) [Pentobarbital], the “½ Life” value (in vivo) is given as 5 h.
In the case of `CCCC1O[C@@H]2C[C@H]3[C@@H]4CCC5=CC(=O)C=C[C@]5(C)[C@H]4[C@@H](O)C[C@]3(C)[C@]2(C(=O)CO)O1` (stereo partly shown) [Budesonide], the “½ Life” value [2] is listed as 2 h.
In the case of `CN1CC[C@]23c4c5ccc(O)c4O[C@H]2C(=O)CC[C@@]3(O)[C@H]1C5` [Oxymorphone], the “½ Life” value [1] is given as 1.3 h.
In the case of `CN(C)/N=N/c1[nH]cnc1C(N)=O` [Dacarbazine], the “½ Life” value [2] is listed as 5 h.
In the case of `COc1ccc2c3c1O[C@H]1C(=O)CC[C@H]4[C@@H](C2)N(C)CC[C@]314` [Hydrocodone], the “½ Life” value (in vivo) is given as 1.25 h.
In the case of `CC#CCC(C)[C@H](O)/C=C/[C@@H]1[C@H]2C/C(=C/CCCC(=O)O)C[C@H]2C[C@H]1O` (stereo partly shown) [Iloprost], the “½ Life” value [1] is listed as 0.333 h.
For `CC(C)C[C@H](NC(=O)CNC(=O)[C@H](Cc1ccc(O)cc1)NC(=O)[C@H](CO)NC(=O)[C@H](Cc1c[nH]c2ccccc12)NC(=O)[C@H](Cc1cnc[nH]1)NC(=O)[C@@H]1CCC(=O)N1)C(=O)N[C@@H](CCCNC(=N)N)C(=O)N1CCC[C@H]1C(=O)NCC(N)=O` [Gonadorelin], the “½ Life” value (in vivo) is given as 0.033 h.
In the case of `CCc1cc2c(s1)N(C)C(=O)CN=C2c1ccccc1Cl` [Clotiazepam], the “½ Life” value [2] is listed as 4 h.
In the case of `COc1ccc2[nH]c([S+]([O-])Cc3ncc(C)c(OC)c3C)nc2c1` (stereo not shown) [Omeprazole], the “½ Life” value [1] is listed as 0.5 h.
In the case of `NCCCNCCSP(=O)(O)O` [Amifostine], the “½ Life” value [2] is given as 0.133 h.
For `COC(=O)[C@H](c1ccccc1)[C@H]1CCCCN1` [Dexmethylphenidate], the “½ Life” value (in vivo) is listed as 2 h.
In the case of `CC(C)c1ccc2oc3nc(N)c(C(=O)O)cc3c(=O)c2c1` [Amlexanox], the “½ Life” value [2] is given as 3.5 h.
For `NC(=O)CCC/N=C(\c1ccc(Cl)cc1)c1cc(F)ccc1O` [Progabide], the “½ Life” value [1] is listed as 4 h.
For `C[n+]1ccccc1/C=N/O` [Pralidoxime], the “½ Life” value [1] is listed as 1.233 h.
For `COC(=O)C(c1ccccc1)C1CCCCN1` (stereo not shown) [Methylphenidate], the “½ Life” value (in vivo) is given as 3 h.
In the case of `CSc1ccc(C(=O)c2[nH]c(=O)[nH]c2C)cc1` [Enoximone], the “½ Life” value [2] is listed as 4 h.
For Insulin Lispro, the “½ Life” value (in vivo) is given as 1 h.
For `CN1CC[C@]23c4c5ccc(O)c4O[C@H]2[C@@H](O)C=C[C@H]3[C@H]1C5` [Morphine], the “½ Life” value (in vivo) is listed as 2 h.
For `COCCOC(=O)C1=C(C)NC(C)=C(C(=O)OC(C)C)C1c1cccc([N+](=O)[O-])c1` (stereo not shown) [Nimodipine], the “½ Life” value [1] is listed as 1.7 h.
In the case of `CSCC[C@H](NC(=O)[C@H](Cc1c[nH]c2ccccc12)NC(=O)CCNC(=O)OC(C)(C)C)C(=O)N[C@@H](CC(=O)O)C(=O)N[C@@H](Cc1ccccc1)C(N)=O` [Pentagastrin], the “½ Life” value (in vivo) is listed as 0.166 h.
For OspA lipoprotein, the “½ Life” value [1] is given as 1.2 h.
For `N[C@H](C(=O)O)[C@H](O)c1ccc(O)c(O)c1` [Droxidopa], the “½ Life” value [2] is given as 2 h.
In the case of `COC(=O)[C@H]1[C@@H](OC(=O)c2ccccc2)C[C@@H]2CC[C@H]1N2C` [Cocaine], the “½ Life” value [2] is listed as 1 h.
In the case of Muromonab, the “½ Life” value (in vivo) is listed as 0.8 h.
For `CNC(=O)c1cnn(-c2nc(N)c3ncn([C@@H]4O[C@H](CO)[C@@H](O)[C@H]4O)c3n2)c1` [Regadenoson], the “½ Life” value (in vivo) is given as 0.033 h.
For `CC(C)(C)NC[C@H](O)COc1nsnc1N1CCOCC1` [Timolol], the “½ Life” value (in vivo) is listed as 2.5 h.
For `Nc1cc(-c2ccncc2)c[nH]c1=O` [Amrinone], the “½ Life” value [2] is given as 5 h.
For `NNCCc1ccccc1` [Phenelzine], the “½ Life” value [1] is listed as 1.2 h.
In the case of `COc1ccccc1Oc1c(NS(=O)(=O)c2ccc(C(C)(C)C)cc2)nc(-c2ncccn2)nc1OCCO` [Bosentan], the “½ Life” value [2] is given as 5 h.
In the case of `CN1C(=O)CN=C(c2ccccc2)c2cc(Cl)ccc21` [Diazepam], the “½ Life” value (in vivo) is listed as 1 h.
In the case of `C[C@@H](CN1CC(=O)NC(=O)C1)N1CC(=O)NC(=O)C1` [Dexrazoxane], the “½ Life” value [2] is given as 2.5 h.
For `C=CCc1ccccc1OCC(O)CNC(C)C` (stereo not shown) [Alprenolol], the “½ Life” value [2] is listed as 2 h.
